US20240382537A1, “Genetically Modified Mycoplasma Bacteria Active Against Heterogenous Bacterial Biofilms” (priority 2021, published 2024)

Columns and labels:
P. aeruginosa biofilm = assay: In vitro P. aeruginosa biofilm degradation assay (crystal violet); assay type: cell-based, Pseudomonas aeruginosa; details: for effect of the minimal killing concentration when cells are organized in a biofilm: antibiotic alone, P. aeruginosa clinical isolates
Procedure: In Vitro P. aeruginosa Biofilm Degradation Assay
M. pneumoniae spp. was grown in a T25 flask for three days with 5 ml of Hayflick media without antibiotics, and then the conditioned supernatant was filtered with 0.33 μm sterile syringe filters. P. aeruginosa strains were grown overnight in Erlenmeyer flasks (20 μl stock in 20 ml TSB) at 37° C. on shaking 600 rpm, and then diluted to an OD600 of 0.15 in TSB. Diluted Pseudomonas culture (100 μl) was then added in triplicates to sterile 96-well polystyrene microtiter plates. Cells were incubated statically overnight at 25°° C. to allow for biofilm formation. Biofilms were washed with PBS the following day to remove non-adherent cells and TSB media. Treatment of 50-100 µl of M. pneumoniae-conditioned filtered medium were added to the wells (using at least triplicates), and plates were incubated at 37° C. for 4 h. After incubation, wells were washed with PBS, stained with 150 μl of 0.1% (w/v) crystal violet for 10 min and washed three times with PBS. The dye was solubilized by addition of 100 μl of 95% (v/v) ethanol and incubated for 10 min. Absorbance was measured at 595 nm using a TECAN plate reader.

M. pneumoniae = assay: Effect of antibiotics on growth of M. pneumoniae; assay type: cell-based, Mycoplasma pneumoniae
Description: (§1) We studied a possible increase of the biofilm dispersal activity of CV8_HA strain, that expresses dispersal agents against P. aeruginosa, when combined with antibiotics. We used two different clinical isolates of P. aeruginosa (SAT290 and C117) and two different standard of care antibiotics (Ceftazidime-Avibactam and Piperacillin-Tazobactam). First, we studied the effect of different concentrations of these antibiotics on the growth of P. aeruginosa isolates and M. pneumoniae. […] Therefore, we studied the degradation of the biofilm of the P. aeruginosa clinical isolates when exposed to the supernatant of CV8_HA strains with or without these antibiotics (FIG. 8).

P. aeruginosa cells = assay: Effect of antibiotic concentrations on growth of P. aeruginosa isolates in suspension; assay type: cell-based, Pseudomonas aeruginosa; details: clinical isolates SAT290 and C117, suspension
Description: as §1

Substance: Ceftazidime-Avibactam
- effect of the minimal killing concentration when cells are organized in a biofilm (P. aeruginosa biofilm): has no effect
- antibiotic activity on biofilm when combined with CV8_HA supernatant (P. aeruginosa biofilm; clinical isolate SAT290 (FIG. 8A)): becomes active on the biofilm
- susceptibility of M. pneumoniae to the antibiotic (M. pneumoniae): naturally resistant
- minimal concentration that kills P. aeruginosa cells when grown in suspension (P. aeruginosa cells): > 15 µg/mL

Substance: Piperacillin-Tazobactam
- effect of the minimal killing concentration when cells are organized in a biofilm (P. aeruginosa biofilm): has no effect
- susceptibility of M. pneumoniae to the antibiotic (M. pneumoniae): naturally resistant
- minimal concentration that kills P. aeruginosa cells when grown in suspension (P. aeruginosa cells): > 5 µg/mL
